# Measured values reported in patent US4966895A, “Cyclic monophosphates of purine and pyrimidine acyclonucleosides as anti-retroviral agents” (Merck & Co. Inc., priority 1989, dated 1990).
# Structures can show the parent of a compound that is named as a salt. Where two headings read alike, the source gives them in different places.
# Key:
# visna virus = test: Inhibition of visna virus-induced CPE in sheep choroid plexus (SCP) cells; type: cell-based, strain 1514; conditions: Visna-maedi virus, 144 h
# Excerpt: Activity of 9-[(2-hydroxy-1,3,2-dioxophosphorian-5-yl)oxymethyl]guanine P-oxide, sodium salt (2'-NOR-cGMP) against visna virus in sheep choroid plexus cells.
# Visna virus, strain 1514, is a lentivirus of the retrovirus family. It was chosen because of its genetic and biologic similarity to the human immunodeficiency viruses (HIV). Since visna virus and the human immunodeficiency virus are closely related retroviruses, activity against the visna virus by a compound is felt to predict activity against the human immunodeficiency virus by the same compound. (See Visna Virus as an In Vitro Model for Human Immunodeficiency Virus and Inhibition by Ribavirin, Phosphonoformate, and 2',3'-Dideoxy-nucleosides, Frank K. B.; McKernan P.A.; Smith R.A.; Smee D.F.; Antimicrobiol Agents and Chemotherapy, Sept. 1987; Vol. 31, No. 9 Pg 1369-1374.) The virus has been cultivated and plaque purified in SCP cells fed with MEM, HEPES, gentamicin and 2% lamb serum.
# (§1) Visna virus is cultivated in low passage cells derived from the choroid plexus (SCP) of a newborn lamb. The choroid plexus is dissected from the newborn lamb, minced and diluted in minimum essential medium (MEM), containing 20% fetal bovine serum (FBS), 1 mM N 2-hydroxyethylpiperazine-N'-2-ethane sulfonic acid (HEPES), 50 μg/ml gentamicin at PH 7.4. After initial cultivation, cells are dispersed by addition of trypsin (0.25%) plus EDTA, split 1:2 and added to MEM+10% FBS, HEPES, gentamicin and reincubated. At approximately passage 4 there are adequate numbers of cells for freezing and storage in liquid nitrogen.
# (§2) For antiviral assays, 0.2 ml SCP cells (0.7×10^5 cells/ml) are inoculated into wells of 96 well microtiter plates and incubated for 18-24 hours.
# (§3) The medium is decanted from the cells, and drug and virus(~320-50% infectious doses) are added within 15 minutes. Each concentration of drug (serial two-fold or half-log dilutions) are added in 0.1 ml volumes to each of 6 wells. Visna virus is added (0.1 ml) to 4 wells for observation of virus inhibitory activity.
# (§4) Virus free test medium is added to two wells (0.1 mL) for observation of drug cytotoxicity. Experimental controls include: cell control (cells with 0.2 mL medium) and virus controls (cells with 0.1 mL virus and 0.1 mL medium). The degree of CPE inhibition and drug cytotoxicity in comparison with virus and cell controls is observed microscopically after 6 days of incubation at 37° C. Fresh medium and drug dilutions are placed on the cells after 3 days of incubation. Virus CPE and drug cytotoxicity are scored on a 0-4 basis with 4 representing total cell destruction. The lowest concentration of drug producing ≥50% inhibition of virus-induced CPE is considered the minimum inhibitory concentration (MIC). The lowest concentration of drug producing a score of […] or visable alteration in cell morphology will be considered the minimum cytotoxic concentration (MCC). Using the observed percent CPE, the MIC will be calculated by linear regression analysis.
# in vitro = type: cell-based; conditions: sheep, choroid plexus cells
# Procedure: as §1, §2, §3, §4
# [1] = mean of individual values, ≥50% inhibition of virus-induced CPE, 6 days, 37° C, sheep choroid plexus cells, read-out: MIC (minimum inhibitory concentration), Mean
# [2] = MCC (minimum cytotoxic concentration), Range
# [3] = read-out: MIC (minimum inhibitory concentration), Mean
MIC (visna virus; [1]) [µg/mL],Structure (SMILES),MCC at 144 h (in vitro; [2]) [µg/mL],"MIC (visna virus; read-out: MIC (minimum inhibitory concentration), Individual Values) [µg/mL]",MIC (visna virus; [3]) [µg/mL],"MCC at 144 h (in vitro; MCC (minimum cytotoxic concentration), Individual Values) [µg/mL]","MCC at 144 h (in vitro; range of individual values, 6 days, 37° C, virus free, read-out: MCC (minimum cytotoxic concentration), Range) [µg/mL]","MCC at 144 h (in vitro; lowest concentration producing a score of ≤1 or visible alteration in cell morphology, 6 days, 37° C, virus free, read-out: MCC (minimum cytotoxic concentration), Individual Values) [µg/mL]"
24,"Nc1nc2c(ncn2COC2COP(=O)(O)OC2)c(=O)[nH]1 (centres unmarked) [2'-nor-cGMP, 9-[(2-hydroxy-1,3,2-dioxophosphorian-5-yl)oxymethyl]guanine P-oxide, sodium salt]",32 to 100,–,–,–,–,–
–,Cc1cn([C@H]2C[C@H](N=[N+]=[N-])[C@@H](CO)O2)c(=O)[nH]c1=O [Azidothymidine],40,10,10,40,–,–
–,O=C(O)P(=O)(O)O [Phosphonoformate],–,–,57.4,–,100,100
175,NC(=O)c1ncn([C@@H]2O[C@H](CO)[C@@H](O)[C@H]2O)n1 [Virazole],100 to 320,–,–,–,–,–
